Data published in patent US10640534B2 (Agios Pharmaceuticals, Inc., priority 2012, dated 2020).

Tested on: U87MG cells
Test: Cellular assay, inhibition of 2-HG production in U87MG cells
Assay type: cell-based
Details: Homo sapiens, U-87 MG, 48 h
Description: Cells (HT1080 or U87MG) are grown in T125 flasks in DMEM containing 10% FBS, 1× penicillin/streptomycin and 500 ug/mL G418 (present in U87MG cells only). They are harvested by trypsin and seeded into 96 well white bottom plates at a density of 5000 cell/well in 100 ul/well in DMEM with 10% FBS. […] Cells are incubated overnight at 37° C. in 5% CO2. The next day test compounds are made up at 2× the final concentration and 100 ul are added to each cell well. The final concentration of DMSO is 0.2% and the DMSO control wells are plated in row G. The plates are then placed in the incubator for 48 hours. […] The cell plate is placed back in the incubator for another 24 hours. At 72 hours post compound addition, 10 mL/plate of Promega Cell Titer Glo reagent is thawed and mixed. The cell plate is removed from the incubator and allowed to equilibrate to room temperature. Then 100 ul of Promega Cell Titer Glo reagent is added to each well of media. The cell plate is then placed on an orbital shaker for 10 minutes and then allowed to sit at room temperature for 20 minutes. The plate is then read for luminescence with an integration time of 500 ms.

First: CS(=O)(=O)c1cc(F)cc(N(C(=O)[C@@H]2CCC(=O)N2c2nccc(C#N)n2)C(C(=O)NC2CCC(F)(F)CC2)c2ccccc2Cl)c1 (stereo partly drawn) [Compound 108, (2S)—N-(1-(2-Chlorophenyl)-2-((4,4-difluorocyclohexyl)amino)-2-oxoethyl)-1-(4-cyanopyrimidin-2-yl)-N-(3-fluoro-5-(methylsulfonyl)phenyl)-5-oxopyrrolidine-2-carboxamide]
Second: CS(=O)(=O)c1cccc(N(C(=O)[C@@H]2CCC(=O)N2c2nccc(C#N)n2)[C@H](C(=O)NC2CCC(F)(F)CC2)c2ccccc2Cl)c1 [Compound 103, (S)—N—((S)-1-(2C)-2-((4,4-difluorocyclohexyl)amino)-2-oxoethyl)-1-(4-cyanopyrimidin-2-yl)-N-(3-(methylsulfonyl)phenyl)-5-oxopyrrolidine-2-carboxamide]
The IC50 of the first is lower: less than 100 nM for the first, 100 to 500 nM for the second.

`N#Cc1ccnc(N2C(=O)CC[C@H]2C(=O)N(c2cccc3[nH]ncc23)C(C(=O)NC2CC(F)(F)C2)c2ccccc2Cl)c1` (stereo partly drawn) [Compound 152, (2S)—N-(1-(2-Chlorophenyl)-2-((3,3-difluorocyclobutyl)amino)-2-oxoethyl)-1-(4-cyanopyridin-2-yl)-N-(1H-indazol-4-yl)-5-oxopyrrolidine-2-carboxamide] and `N#Cc1ccnc(N2C(=O)CC[C@H]2C(=O)N(c2cccc(F)c2)[C@H](C(=O)NC2CC(F)(F)C2)c2ccccc2Cl)c1` [Compound 37] cannot be ordered by IC50: less than 100 nM for the first, less than 100 nM for the second.

First: O=C(NC1CC(F)(F)C1)C(c1ccccc1Cl)N(C(=O)[C@@H]1CCCC(=O)N1c1ncccn1)c1cccc(F)c1 (stereo in doubt) [Compound 20, (S)—N—((R)-1-(2-Chloro-phenyl)-2-((3,3-difluorocyclobutyl)amino)-2-oxoethyl)-N-(3-fluoro-phenyl)-6-oxo-1-(pyrimidin-2-yl)piperidine-2-carboxamide]
Second: O=C(NC1CC(F)(F)C1)[C@H](c1ccccc1Cl)N(C(=O)[C@@H]1CCC(=O)N1c1ncccn1)c1cc(F)cc(F)c1 [Compound 70, (S)—N—((S)-1-(2-Chlorophenyl)-2-((3,3-difluorocyclobutyl)amino)-2-oxoethyl)-N-(3,5-difluoro-phenyl)-5-oxo-1-(pyrimidin-2-yl)pyrrolidine-2-carboxamide]
The IC50 of the first is higher: 100 to 500 nM for the first, less than 100 nM for the second.

`O=C(NC1CC(F)(F)C1)[C@H](c1ccccc1Cl)N(C(=O)[C@@H]1CCC(=O)N1c1cscn1)c1cccc(F)c1` [Compound 43, (S)—N—((S)-1-(2-Chlorophenyl)-2-(3,3-difluorocyclobutylamino)-2-oxoethyl)-N-(3-fluorophenyl)-5-oxo-1-(thiazol-4-yl)pyrrolidine-2-carboxamide] and `O=C(NC1CC(F)(F)C1)[C@H](c1ccccc1Cl)N(C(=O)[C@@H]1COC(=O)N1c1cscn1)c1cccc(F)c1` [Compound 72, (S)—N—((S)-1-(2-Chlorophenyl)-2-((3,3-difluorocyclobutyl)amino)-2-oxoethyl)-N-(3-fluorophenyl)-2-oxo-3-(thiazol-4-yl)oxazolidine-4-carboxamide] cannot be ordered by IC50: less than 100 nM for the first, less than 100 nM for the second.

`N#Cc1ccnc(N2C(=O)CC[C@H]2C(=O)N(c2ccc3[nH]ccc3c2)[C@H](C(=O)NC2CC(F)(F)C2)c2ccccc2Cl)c1` [Compound 206, (S)—N—((S)-1-(2-Chlorophenyl)-2-((3,3-difluorocyclobutyl)amino)-2-oxoethyl)-1-(4-cyanopyridin-2-yl)-N-(1H-indol-5-yl)-5-oxopyrrolidine-2-carboxamide] and `CN(C)c1cccc(N(C(=O)[C@@H]2CCC(=O)N2c2cc(C#N)ccn2)[C@H](C(=O)NC2CC(F)(F)C2)c2ccccc2Cl)c1` [Compound 161, (S)—N—((S)-1-(2-Chlorophenyl)-2-(3,3-difluorocyclobutylamino)-2-oxoethyl)-1-(4-cyanopyridin-2-yl)-N-(3-(dimethylamino)phenyl)-5-oxopyrrolidine-2-carboxamide] cannot be ordered by IC50: less than 100 nM for the first, less than 100 nM for the second.

`N#Cc1ccnc(N2C(=O)OCC[C@H]2C(=O)N(c2cncc(F)c2)[C@H](C(=O)NC2CC(F)(F)C2)c2ccccc2Cl)c1` [Compound 143, (S)—N—((S)-1-(2-Chlorophenyl)-2-((3,3-difluorocyclobutyl)amino)-2-oxoethyl)-3-(4-cyanopyridin-2-yl)-N-(5-fluoropyridin-3-yl)-2-oxo-1,3-oxazinane-4-carboxamide] and `CC(C)(O)c1cc(F)cc(N(C(=O)[C@@H]2CCOC(=O)N2c2cc(C#N)ccn2)[C@H](C(=O)NC2CC(F)(F)C2)c2ccccc2Cl)c1` [Compound 146, (S)—N—((S)-1-(2-Chlorophenyl)-2-(3,3-difluorocyclobutylamino)-2-oxoethyl)-3-(4-cyanopyridin-2-yl)-N-(3-fluoro-5-(2-hydroxypropan-2-yl)phenyl)-2-oxo-1,3-oxazinane-4-carboxamide] cannot be ordered by IC50: less than 100 nM for the first, less than 100 nM for the second.

`N#Cc1ccnc(N2C(=O)CC[C@H]2C(=O)N(c2cc(F)cc(F)c2)[C@H](C(=O)NC2CC(F)(F)C2)c2cc(Cl)ccc2Cl)c1` [Compound 201, (S)-1-(4-Cyanopyridin-2-yl)-N—((S)-1-(2,5-dichlorophenyl)-2-((3,3-difluorocyclobutyl)-amino)-2-oxoethyl)-N-(3,5-difluorophenyl)-5-oxopyrrolidine-2-carboxamide] and `N#Cc1ccnc(N2C(=O)[C@H](O)C[C@H]2C(=O)N(c2cc(F)cc(F)c2)[C@@H](C(=O)NC2CC(F)(F)C2)c2ccccc2Cl)c1` [Compound 114, (2S,4R)—N—((R)-1-(2-Chlorophenyl)-2-((3,3-difluorocyclobutyl)amino)-2-oxoethyl)-1-(4-cyanopyridin-2-yl)-N-(3,5-difluorophenyl)-4-hydroxy-5-oxopyrrolidine-2-carboxamide] cannot be ordered by IC50: less than 100 nM for the first, less than 100 nM for the second.

`N#Cc1cccc(N(C(=O)[C@@H]2CCC(=O)N2c2cc(C#N)ccn2)[C@H](C(=O)NC2CCC(F)(F)CC2)c2ccccc2Cl)c1` [Compound 166, (S)—N—((S)-1-(2-Chlorophenyl)-2-((4,4-difluorocyclohexyl)amino)-2-oxoethyl)-N-(3-cyanophenyl)-1-(4-cyanopyridin-2-yl)-5-oxopyrrolidine-2-carboxamide] and `N#Cc1ccnc(N2C(=O)[C@H](O)C[C@H]2C(=O)N(c2cccc(F)c2)[C@H](C(=O)NC2CCC(F)(F)CC2)c2ccccc2Cl)c1` [Compound 121, (2S,4R)—N—((S)-1-(2-Chlorophenyl)-2-((4,4-difluorocyclohexyl)amino)-2-oxoethyl)-1-(4-cyanopyridin-2-yl)-N-(3-fluorophenyl)-4-hydroxy-5-oxopyrrolidine-2-carboxamide] cannot be ordered by IC50: less than 100 nM for the first, less than 100 nM for the second.

`C[C@]1(O)C[C@@H](C(=O)N(c2cccc(F)c2)C(C(=O)NC2CC(F)(F)C2)c2ccccc2Cl)N(c2cc(C#N)ccn2)C1=O` (single isomer, unassigned) [Compound 183] and `N#Cc1ccnc(N2C(=O)N(CCO)C[C@H]2C(=O)N(c2cccc(F)c2)C(C(=O)NC2CC(F)(F)C2)c2ccccc2Cl)c1` (stereo partly drawn) [Compound 112, (4S)—N-(1-(2-Chlorophenyl)-2-(3,3-difluorocyclobutyl-amino)-2-oxoethyl)-3-(4-cyanopyridin-2-yl)-N-(3-fluorophenyl)-1-(2-hydroxyeth-yl)-2-oxoimidazolidine-4-carboxamide] cannot be ordered by IC50: less than 100 nM for the first, less than 100 nM for the second.

`N#Cc1ccnc(N2C(=O)CNC[C@H]2C(=O)N(c2cc(F)cc(F)c2)[C@H](C(=O)NC2CC(F)(F)C2)c2ccccc2Cl)n1` [Compound 99, (S)—N—((S)-1-(2-chlorophenyl)-2-((3,3-difluorocyclobutyl)amino)-2-oxoethyl)-1-(4-cyanopyrimidin-2-yl)-N-(3,5-difluorophenyl)-6-oxopiperazine-2-carboxamide] and `N#Cc1ccnc(N2C(=O)CC[C@H]2C(=O)N(c2cccc(F)c2)[C@H](C(=O)NC2CC(F)(F)C2)c2ccccc2Cl)c1F` [Compound 82, (S)—N—((S)-1-(2-Chlorophenyl)-2-((3,3-difluorocyclobutyl)amino)-2-oxoethyl)-1-(4-cyano-3-fluoropyridin-2-yl)-N-(3-fluorophenyl)-5-oxopyrrolidine-2-carboxamide] cannot be ordered by IC50: less than 100 nM for the first, less than 100 nM for the second.

`N#Cc1ccnc(N2C(=O)CC[C@H]2C(=O)N(c2cc(F)cc(C3CC3)c2)[C@H](C(=O)NC2CCC(F)(F)CC2)c2ccccc2Cl)c1` [Compound 202, (S)—N—((S)-1-(2-Chlorophenyl)-2-((4,4-difluorocyclohexyl)amino)-2-oxoethyl)-1-(4-cyanopyridin-2-yl)-N-(3-cyclopropyl-5-fluorophenyl)-5-oxopyrrolidine-2-carboxamide] and `N#Cc1ccnc(N2C(=O)[C@H](O)C[C@H]2C(=O)N(c2cc(F)cc(F)c2)[C@H](C(=O)NC2CCC(F)(F)CC2)c2ccccc2Cl)c1` [Compound 125, (2S,4R)—N—((S)-1-(2-Chlorophenyl)-2-(4,4-difluorocyclohexylamino)-2-oxoethyl)-1-(4-cyanopyridin-2-yl)-N-(3,5-difluorophenyl)-4-hydroxy-5-oxopyrrolidine-2-carboxamide] cannot be ordered by IC50: less than 100 nM for the first, less than 100 nM for the second.

`N#Cc1ccnc(N2C(=O)CC[C@H]2C(=O)N(c2cccc(CCO)c2)[C@H](C(=O)NC2CC(F)(F)C2)c2ccccc2Cl)c1` [Compound 160, (S)—N—((S)-1-(2-Chlorophenyl)-2-((3,3-difluorocyclobutyl)amino)-2-oxoethyl)-1-(4-cyanopyridin-2-yl)-N-(3-(2-hydroxyethyl)phenyl)-5-oxopyrrolidine-2-carboxamide] and `CCOC(=O)CN1CC(=O)N(c2cc(C#N)ccn2)[C@H](C(=O)N(c2cc(F)cc(F)c2)[C@H](C(=O)NC2CC(F)(F)C2)c2ccccc2Cl)C1` [Compound 104] cannot be ordered by IC50: less than 100 nM for the first, less than 100 nM for the second.
